Laboratory results as given in patent US10377783B2, “Methods and compounds for enhancing contrast in magnetic resonance imaging (MRI)” (priority 2015, dated 2019).

System: male rat (Sprague Dawley Crl:SD)
Assay: In vivo MRI imaging of 2 and 6, T1-weighted scans
Settings: for T1-weighted MRI signal intensity, bladder: baseline (−10 min) 5085; for T1-weighted MRI signal intensity, lean muscle: baseline (−10 min) 5640; for T1-weighted MRI signal intensity, liver: baseline (−10 min) 7276; for T1-weighted MRI signal intensity, renal medulla: baseline (−10 min) 7725; for T1-weighted MRI signal intensity, renal cortex: baseline (−10 min) 8005; for T1-weighted MRI signal intensity, fat: baseline (−10 min) 14509
Description: Compound 1 (aq., 12.5 mM) was injected intravenously into 2 male rats (Sprague Dawley Crl:SD, 312-338 g) at a dosage of 0.02 mmol/kg following anaesthesia with 5% isoflurane. Compound 2 (aq., 6.25 mM) was injected intravenously into 1 male rat (Sprague Dawley Crl:SD, 349 g) at a dosage of 0.01 mmol/kg following anaesthesia with 5% isoflurane. Compound 6 (aq., 6.25 mM) was injected intravenously into 1 male rat (Sprague Dawley Crl:SD, 341 g) at a dosage of 0.01 mmol/kg following anaesthesia with 5% isoflurane. Anesthesia was maintained at 2-2.5% isoflurane through a nose cone for the duration of the scans. Fast-spin-echo images were collected for 45 mins. immediately post-injection. For compound 1, the DT1-weighted RARE (Rapid Acquisition Relaxation Enhancement) scans were acquired with an echo time of 10 ms, and a repetition time=respiratory cycle duration (˜1100 ms). Both T1- and T2-weighted scans were collected on compounds 2 and 6.
The in vivo contrast potential of compounds 1, 2 and 6 were studied via the collection of fast-spin-echo images for 30-45 minutes immediately following injection of an aqueous solution of each complex. The dosage chosen for 1 was 0.02 mmol/kg (c=[…]) while the dosage chosen for 2 and 6 was 0.01 mmol/kg (c=6.25 mM). Predominantly T1-weighted scans with some T2-weighting were performed on two rats injected with 1.
Both T1- and T2-weighted scans were performed on two rats injected with 2 and its dimeric analogue 6.

[1] = 1 min after injection of 2, 0.01 mmol/kg iv
[2] = 15 min after injection of 2, 0.01 mmol/kg iv
[3] = 30 min after injection of 2, 0.01 mmol/kg iv
[4] = 45 min after injection of 2, 0.01 mmol/kg iv
[5] = injection of 2, 0.01 mmol/kg iv, first 45 min

SMILES: CC1=NCCOCCOCCN=C(C)c2cccc1n2.O.O.[Cl-].[Cl-].[Mn+2] [Compound 2, [MnL2Cl2].2H2O]
- excretion (summary) (0.01 mmol/kg iv): rapid excretion
- T1-weighted MRI signal intensity, bladder [1]: 5155 arbitrary units of voxel intensity
- T1-weighted MRI signal intensity, lean muscle [1]: 5841 arbitrary units of voxel intensity
- T1-weighted MRI signal intensity, liver [1]: 7568 arbitrary units of voxel intensity
- T1-weighted MRI signal intensity, renal medulla [1]: 9169 arbitrary units of voxel intensity
- T1-weighted MRI signal intensity, renal cortex [1]: 9368 arbitrary units of voxel intensity
- T1-weighted MRI signal intensity, fat [1]: 15671 arbitrary units of voxel intensity
- T1-weighted MRI signal intensity, bladder [2]: 16182 arbitrary units of voxel intensity
- T1-weighted MRI signal intensity, lean muscle [2]: 5696 arbitrary units of voxel intensity
- T1-weighted MRI signal intensity, liver [2]: 7385 arbitrary units of voxel intensity
- T1-weighted MRI signal intensity, renal medulla [2]: 8472 arbitrary units of voxel intensity
- T1-weighted MRI signal intensity, renal cortex [2]: 10144 arbitrary units of voxel intensity
- T1-weighted MRI signal intensity, fat [2]: 15845 arbitrary units of voxel intensity
- T1-weighted MRI signal intensity, bladder [3]: 11996 arbitrary units of voxel intensity
- T1-weighted MRI signal intensity, lean muscle [3]: 5569 arbitrary units of voxel intensity
- T1-weighted MRI signal intensity, liver [3]: 7812 arbitrary units of voxel intensity
- T1-weighted MRI signal intensity, renal medulla [3]: 7969 arbitrary units of voxel intensity
- T1-weighted MRI signal intensity, renal cortex [3]: 10702 arbitrary units of voxel intensity
- T1-weighted MRI signal intensity, fat [3]: 15745 arbitrary units of voxel intensity
- T1-weighted MRI signal intensity, bladder [4]: 13104 arbitrary units of voxel intensity
- T1-weighted MRI signal intensity, lean muscle [4]: 5574 arbitrary units of voxel intensity
- T1-weighted MRI signal intensity, liver [4]: 7683 arbitrary units of voxel intensity
- T1-weighted MRI signal intensity, renal medulla [4]: 8615 arbitrary units of voxel intensity
- T1-weighted MRI signal intensity, renal cortex [4]: 11485 arbitrary units of voxel intensity
- T1-weighted MRI signal intensity, fat [4]: 15860 arbitrary units of voxel intensity
- Max. intensity change, T1-weighted, bladder [5]: 218%
- Max. intensity change, T1-weighted, fat [5]: 9%
- Max. intensity change, T1-weighted, lean muscle [5]: 3%
- Max. intensity change, T1-weighted, liver [5]: 7%
- Max. intensity change, T1-weighted, renal cortex [5]: 43%
- Max. intensity change, T1-weighted, renal medulla [5]: 19%
- effect on T1-weighted signal intensity (renal cortex, liver and lean muscle, 0.01 mmol/kg iv): causes an enhancement in the renal cortex and has negligible effect on liver and lean muscle tissue
